# Columns and labels:
# [1] = tested on: total viable cells (totalViableCells); assay: MLTA, total live cells concentration-response; type: cell-based; details: Homo sapiens, 144 h, 6 days, normalized to vehicle control, read-out: total_live normalized cell count
# Method: A custom optimized cytokine cocktail was developed using commercially available cytokines (Peprotech, New Jersey) to facilitate simultaneous multi-lineage differentiation and self-renewal of freeze-thawed primary human bone marrow-derived CD34+ cells in SFEM II media (cells and media from StemCell Technologies, Vancouver). Cultures were carried out in ultra-low attachment 96-well plates (Corning, New York) with test article added on day 0 and cultured at 37°C, 85% relative humidity, and 5% CO2 for six days before interrogating drug impact via 17-parameter flow cytometry.
# The flow cytometry panel used to define hematopoietic subsets was composed of CD34-PECy7, CD90-PECY5, CD38-AF488, CD371-PE, CD45Ra-BV421, CD14-BV605, CD42b-AF647, CD10-PEDazzle594, CD235a-PerCPCy5.5 (BioLegend, California), CD15-BUV395, CD41a-APCH7, CD71-BV786 (BD Biosciences, California), and DAPI for dead cell exclusion (ThermoFisher, California). In short, Day 6 cells were harvested, FcR-blocked (FcR binding inhibitor, ThermoFisher), surface-stained, then analyzed in a buffer containing TruCount Control Beads using a BD LSR Fortessa SORP fitted with a high-throughput sampler (BD Biosciences, California). Data was analyzed in Diva 6.0.2 and exported to CSV where after all cell data was transformed to cell per mL then normalized on a per-donor basis to untreated control wells to determine drug impact.
# Donor material was collected and cultured as described above. The number of replicate donor samples per drug ranged from 2–7 and varied per drug (S1 Table). Drug treatment was added at time 0 and cells were maintained in culture for 6 days. Concentrations tested for each drug compound are contained in S1 Table. Concentrations were selected to span a range that is clinically useful. Following treatment, cell populations were measured using flow cytometry. We extracted cell counts from flow cytometry data, normalized to bead counts, and corrected for well volume.
# Each well was normalized to the average of six vehicle control wells. For drugs that were tested across multiple runs of the assay, vehicle-normalized donor data were pooled, and we used the average of these pooled data for further modeling. Normalized data used as model inputs are included in S1 Table.
# [2] = tested on: lymphocyte progenitors (LymP); assay: MLTA, LymP: concentration-response and QSP model fit; type: cell-based, human; details: Homo sapiens, Lymphocyte, 144 h
# Summary of the method: (§1)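 Values derive from fitting a QSP Emax model (EmaxT 0–2, above 1 denoting added cell killing) to vehicle-normalized lineage counts. Counts were obtained by 17-parameter flow after 6-day culture of human bone marrow CD34+ cells with test article.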
# [3] = tested on: B cells (B-lin); assay: MLTA, B-lin: concentration-response and QSP model fit; type: cell-based, human; details: Homo sapiens, B-cell, 144 h
# Summary of the method: as §1
# [4] = tested on: granulocyte progenitor (Gran-lin prog); assay: MLTA, GranP: concentration-response and QSP model fit; type: cell-based, human; details: Homo sapiens, 144 h
# Summary of the method: (§2)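 Freeze-thawed primary human bone marrow CD34+ cells were cultured 6 days in SFEM II with a cytokine cocktail, drug added on day 0. Subsets were counted by 17-parameter flow cytometry with TruCount beads and normalized to vehicle wells. An Emax QSP model (Emax 0–2, L1 regularization) was fitted to these counts.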
# [5] = tested on: multi-potent progenitors (MPPs); assay: MLTA, MPPs: concentration-response and QSP model fit; type: cell-based, human; details: Homo sapiens, 144 h
# Summary of the method: as §1
# [6] = tested on: granulocyte-macrophage progenitor (GMPs); assay: MLTA, GMPs: concentration-response and QSP model fit; type: cell-based, human; details: Homo sapiens, 144 h, 6 days, normalized to vehicle control, read-out: GMPs normalized cell count
# Summary of the method: as §1
# [7] = tested on: early erythroid cells (Eryth I); assay: MLTA, ErythI: concentration-response and QSP model fit; type: cell-based, human; details: Homo sapiens, 144 h
# Summary of the method: as §2
# [8] = tested on: MK cells (MK-lin); assay: MLTA, MK: concentration-response and QSP model fit; type: cell-based, human; details: Homo sapiens, 144 h
# Summary of the method: as §1
smiles,measurement,setting,value
CCc1cnn2c(NCc3ccc[n+]([O-])c3)cc(N3CCCC[C@H]3CCO)nc12 [dinaciclib],viability at 0.0002 µM,[1]; dose 0.2 nM,95.4%
same,viability at 0.001 µM,[1]; dose 1 nM,107%
same,viability at 0.005 µM,[1]; dose 5 nM,92.4%
same,viability at 0.025 µM,[1]; dose 25 nM,26.1%
same,viability at 0.1 µM,[1]; dose 100 nM,0.282%
same,viability at 0.5 µM,[1]; dose 500 nM,0.4%
same,viability at 2.5 µM,[1]; dose 2500 nM,0.255%
same,activity at 0.0002 µM,"[2]; dose 0.2 nM, 6 days, normalized to vehicle control, read-out: LymP normalized cell count",89.4%
same,activity at 0.001 µM,"[2]; dose 1 nM, 6 days, normalized to vehicle control, read-out: LymP normalized cell count",105%
same,activity at 0.005 µM,"[2]; dose 5 nM, 6 days, normalized to vehicle control, read-out: LymP normalized cell count",99.3%
same,activity at 0.025 µM,"[2]; dose 25 nM, 6 days, normalized to vehicle control, read-out: LymP normalized cell count",38.3%
same,activity at 0.1 µM,"[2]; dose 100 nM, 6 days, normalized to vehicle control, read-out: LymP normalized cell count",3.05%
same,activity at 0.5 µM,"[2]; dose 500 nM, 6 days, normalized to vehicle control, read-out: LymP normalized cell count",7.81%
same,activity at 2.5 µM,"[2]; dose 2500 nM, 6 days, normalized to vehicle control, read-out: LymP normalized cell count",2.53%
same,Emax,"[2]; parameter from QSP model fitting, read-out: Emax_drug_LymP",115%
same,activity at 0.0002 µM,"[3]; dose 0.2 nM, 6 days, normalized to vehicle control, read-out: B-lin normalized cell count",81.8%
same,activity at 0.001 µM,"[3]; dose 1 nM, 6 days, normalized to vehicle control, read-out: B-lin normalized cell count",90.4%
same,activity at 0.005 µM,"[3]; dose 5 nM, 6 days, normalized to vehicle control, read-out: B-lin normalized cell count",90.4%
same,activity at 0.025 µM,"[3]; dose 25 nM, 6 days, normalized to vehicle control, read-out: B-lin normalized cell count",11.7%
same,activity at 0.1 µM,"[3]; dose 100 nM, 6 days, normalized to vehicle control, read-out: B-lin normalized cell count",0.127%
same,activity at 0.5 µM,"[3]; dose 500 nM, 6 days, normalized to vehicle control, read-out: B-lin normalized cell count",0.514%
same,activity at 2.5 µM,"[3]; dose 2500 nM, 6 days, normalized to vehicle control, read-out: B-lin normalized cell count",0.106%
same,Emax,"[3]; parameter from QSP model fitting, read-out: Emax_drug_B",77.4%
same,activity at 0.0002 µM,"[4]; dose 0.2 nM, 6 days, normalized to vehicle control, read-out: GranPs normalized cell count",97.3%
same,activity at 0.001 µM,"[4]; dose 1 nM, 6 days, normalized to vehicle control, read-out: GranPs normalized cell count",99.7%
same,activity at 0.005 µM,"[4]; dose 5 nM, 6 days, normalized to vehicle control, read-out: GranPs normalized cell count",93.8%
same,activity at 0.025 µM,"[4]; dose 25 nM, 6 days, normalized to vehicle control, read-out: GranPs normalized cell count",31.7%
same,activity at 0.1 µM,"[4]; dose 100 nM, 6 days, normalized to vehicle control, read-out: GranPs normalized cell count",0.0459%
same,activity at 0.5 µM,"[4]; dose 500 nM, 6 days, normalized to vehicle control, read-out: GranPs normalized cell count",0.033%
same,activity at 2.5 µM,"[4]; dose 2500 nM, 6 days, normalized to vehicle control, read-out: GranPs normalized cell count",0.0254%
same,Emax,"[4]; parameter from QSP model fitting, read-out: Emax_drug_GranP",0.0135%
same,activity at 0.0002 µM,"[5]; dose 0.2 nM, 6 days, normalized to vehicle control, read-out: MPPs normalized cell count",94.1%
same,activity at 0.001 µM,"[5]; dose 1 nM, 6 days, normalized to vehicle control, read-out: MPPs normalized cell count",104%
same,activity at 0.005 µM,"[5]; dose 5 nM, 6 days, normalized to vehicle control, read-out: MPPs normalized cell count",96.7%
same,activity at 0.025 µM,"[5]; dose 25 nM, 6 days, normalized to vehicle control, read-out: MPPs normalized cell count",53.4%
same,activity at 0.1 µM,"[5]; dose 100 nM, 6 days, normalized to vehicle control, read-out: MPPs normalized cell count",2.71%
same,activity at 0.5 µM,"[5]; dose 500 nM, 6 days, normalized to vehicle control, read-out: MPPs normalized cell count",2.67%
same,activity at 2.5 µM,"[5]; dose 2500 nM, 6 days, normalized to vehicle control, read-out: MPPs normalized cell count",0.896%
same,Emax,"[5]; parameter from QSP model fitting, read-out: Emax_drug_MPP",69.4%
same,activity at 0.0002 µM,[6]; dose 0.2 nM,87%
same,activity at 0.001 µM,[6]; dose 1 nM,111%
same,activity at 0.005 µM,[6]; dose 5 nM,87.6%
same,activity at 0.025 µM,[6]; dose 25 nM,40.3%
same,activity at 0.1 µM,[6]; dose 100 nM,0.755%
same,activity at 0.5 µM,[6]; dose 500 nM,1.71%
same,activity at 2.5 µM,[6]; dose 2500 nM,0.744%
same,activity at 0.0002 µM,"[7]; dose 0.2 nM, 6 days, normalized to vehicle control, read-out: ErythI normalized cell count",112%
same,activity at 0.001 µM,"[7]; dose 1 nM, 6 days, normalized to vehicle control, read-out: ErythI normalized cell count",104%
same,activity at 0.005 µM,"[7]; dose 5 nM, 6 days, normalized to vehicle control, read-out: ErythI normalized cell count",73.3%
same,activity at 0.025 µM,"[7]; dose 25 nM, 6 days, normalized to vehicle control, read-out: ErythI normalized cell count",23.9%
same,activity at 0.1 µM,"[7]; dose 100 nM, 6 days, normalized to vehicle control, read-out: ErythI normalized cell count",0.828%
same,activity at 0.5 µM,"[7]; dose 500 nM, 6 days, normalized to vehicle control, read-out: ErythI normalized cell count",0.888%
same,activity at 2.5 µM,"[7]; dose 2500 nM, 6 days, normalized to vehicle control, read-out: ErythI normalized cell count",0.845%
same,Emax,"[7]; parameter from QSP model fitting, read-out: Emax_drug_ErythroidI",112%
same,activity at 0.0002 µM,"[8]; dose 0.2 nM, 6 days, normalized to vehicle control, read-out: MK normalized cell count",90.3%
same,activity at 0.001 µM,"[8]; dose 1 nM, 6 days, normalized to vehicle control, read-out: MK normalized cell count",111%
same,activity at 0.005 µM,"[8]; dose 5 nM, 6 days, normalized to vehicle control, read-out: MK normalized cell count",71.8%
same,activity at 0.025 µM,"[8]; dose 25 nM, 6 days, normalized to vehicle control, read-out: MK normalized cell count",11.8%
same,activity at 0.1 µM,"[8]; dose 100 nM, 6 days, normalized to vehicle control, read-out: MK normalized cell count",0.294%
same,activity at 0.5 µM,"[8]; dose 500 nM, 6 days, normalized to vehicle control, read-out: MK normalized cell count",0.526%
same,activity at 2.5 µM,"[8]; dose 2500 nM, 6 days, normalized to vehicle control, read-out: MK normalized cell count",0.425%
same,Emax,"[8]; parameter from QSP model fitting, read-out: Emax_drug_MK",33.1%

# — paper PMC7402526, “An in vitro quantitative systems pharmacology approach for deconvolving mechanisms of drug-induced, multilineage cytopenias” (PLoS Computational Biology, 2020)
